In patent US11903386B2, “Strigolactone analogs and their usage in plant control” (King Abdullah University of Science and Technology, priority 2016, dated 2024):
Entries after “also recorded” stand apart in the source; their conditions may differ.

Tests used:
Arabidopsis seedlings = assay: Arabidopsis lateral root density and primary root length; type: in vivo; settings: 1.0 μM, 8 days old seedlings
Protocol: Sterilized Arabidopsis seeds were sown on half strength MS (with 0.5% sucrose+1% agar, 0.5 g L^−1 MES, pH 5.7) plates supplemented with GR24 or MPs (at 1.0 μM). Plates were stored at 4° C. in darkness for 3 days and then vertically grown at 22° C. in Percival incubator under long day condition (16 h at 22° C./8 h at 16° C. day/night, 60% relative humidity, 4000-5000 LUX white light) for 8 days. For determining the effect on lateral root density and primary root length, at least 30 seedlings were measured using publically available ImageJ software (http://rsbweb.nih.gov/ij/) after scanning roots.

rice d10 mutant = assay: Rice micro tillering bioassay, d10 mutant; type: in vivo; settings: comparison between compounds
Protocol: Rice seeds (WT, d3, d10) were surface-sterilized by washing with 70% ethanol for 1 min and then with 2.5% sodium hypochlorite for 15 min. Seeds were then rinsed thoroughly with sterile MilliQ water and incubated in water for 2 days at 30° C. in the dark. Pre-germinated seeds were transferred to filter papers containing ½ strength MS medium in 90 mm petri dishes and incubated at 30° C. under fluorescent white light (130-180 μM m^−2 s^−1) for one week. Seven day-old seedlings were transferred to 50 ml falcon tubes (one seedling per tube) containing modified half-strength Hoagland nutrient solution and grown in greenhouse. Plants were treated with MPs at 2.5 μM-2.5×10-7 μM, using GR24 as positive control. The compounds were applied six times, twice a week. Number of tillers per plant, plant height and fresh biomass were measured at final harvest.
Statistical analyses were carried out using statistical software package R (version 3.2.2). Dose-response curves and Half Maximum Effective Concentrations (EC50) were calculated to determine optimum amount of MPs. Synthetic strigolactone analog GR24 was used as reference to estimate efficacy of selected compounds. EC50 and estimated response were calculated using drc package (https://cran.r390 project.org/web/packages/drc/) with a Four Parameter Logistic Curve (Dose Response Curve) (Ritz and Streibig, 2005).

ShHTL7 = target: T1, ShHTL7 (Striga hermonthica, UniProt A0A0M3PNA2); assay: Intrinsic tryptophan fluorescence assay; type: binding; settings: ShHTL7 10 μM, mean±SE (n=3); read-out: Kd, affinity of ShHTL7
T1 sequence (A0A0M3PNA2 1-271): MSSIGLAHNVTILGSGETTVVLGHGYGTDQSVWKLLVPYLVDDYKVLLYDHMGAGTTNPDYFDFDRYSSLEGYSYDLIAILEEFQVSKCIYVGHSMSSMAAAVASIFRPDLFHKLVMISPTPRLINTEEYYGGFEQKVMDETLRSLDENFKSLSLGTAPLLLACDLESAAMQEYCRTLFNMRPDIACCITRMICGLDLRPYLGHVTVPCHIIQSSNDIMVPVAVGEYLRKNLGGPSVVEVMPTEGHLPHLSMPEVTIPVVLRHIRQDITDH
Description: Striga hermonthica ShHTL7 cDNA, GenBank accession KR013127 was kindly provided by Prof. Tadao Asami (The University of Tokyo, Japan). Arabidopsis thaliana D14 (AtD14) cDNA, GenBank accession AY097402 was synthesized and cloned into pUC57 (GenScript). ShHTL7 and OsD14 cDNAs were amplified by RT-PCR using the primers shown in Table 2, digested with BamHI and XhoI, and ligated into BamHI/XhoI digested pGEX-6P-1 expression vector (GE Healthcare). Integrity of plasmids was confirmed by sequencing (KAUST Bioscience Core Lab). The plasmids were then transformed into E. coli BL21 (DE3) cells. The cells were grown in LB broth containing ampicillin ([…]), incubated at 37° C. until OD600 of 0.6 and induced with 0.1 mM isopropyl-β-D-thiogalactopyranoside (IPTG) at 16° C. for 16 h. Harvested cells were re-suspended in lysis buffer: 50 mM Tris-HCl (pH 8.0), 200 mM NaCl, 0.5% Tween-20 and 2 mM dithiothreitol (DTT). After sonication on ice for 10 mins, the lysate was centrifuged at 25,000 rpm for 30 min at 4° C. Supernatant was allowed to bind to glutathione-sepharose beads (GE Healthcare) for 2 h at 4° C., washed 3 times with buffer (50 mM Tris-HCl (pH 8.0), 200 mM NaCl, 2 mM DTT), and eluted by cleaving GST moiety with PreScission™ Protease (GE Healthcare) at 4° C. overnight. Eluted protein was further purified by gel filtration using HiLoad 16/60 Superdex200 prep grade column (GE Healthcare) on an AKTA prime system (GE Healthcare) in gel filtration buffer (10 mM HEPES pH 7.5, 50 mM KCl and 2 mM DTT). Protein eluted as a sharp single peak and purity was judged by 4-15% SDS-PAGE (Bio-Rad). Purified protein was concentrated using an Amicon 10K filter unit (Merck Millipore) and stored at −80° C. until use. Similar expression and purification protocol was followed for OsD14 protein, except that OsD14 was eluted from Glutathione resins using 0.2 mM reduced Glutathione (Sigma) without cutting GST tag.
ShHTL7 tryptophans were excited at 280 nm and […] emission intensity was measured at 333 nm. ShHTL7 (10 μM) was incubated at various dilutions (0.2, 0.4, 0.8, 1.6, 3.12, 6.25, 12.5, 25 and 50 μM) of GR24 and MPs for 30 minutes at room temperature before measurement. Each concentration point was measured in triplicates. Emitted fluorescence was monitored using spectraMaxi3 (Molecular Devices) plate reader in 96-wells black plates. Changes in tryptophan fluorescence intensity occur due to conformational changes in protein when it is bound to ligand; differences in fluorescence intensity were recorded and analyzed. Data were normalized and dissociation coefficient (Kd) values were calculated by fitting to a binding saturation single-site model with GraphPad (PRISM 6).

Row | Compound | Increase of primary root length (Arabidopsis seedlings) | Reduction of number of lateral roots / lateral root density (Arabidopsis seedlings) | Relative activity in inhibiting rice tillering (d10) (rice d10 mutant) | Kd (ShHTL7)
1 | COC(=O)/C(=C/OC1C=C(C)C(=O)O1)c1ccc([N+](=O)[O-])cc1 (racemic) [MP1, (E)-methyl 3-(4-methyl-5-oxo-2,5-dihydrofuran-2-yloxy)-2-(4-nitrophenyl)acrylate] | the most active compound; also recorded: more efficient than GR24 | activity higher than that of GR24; also recorded: more efficient than GR24 | weaker than GR24 | 720 ± 550 nM
2 | COC(=O)/C(=C/OC1C=C(C)C(=O)O1)c1ccccc1 (racemic) [MP3, (E)-methyl 3-(4-methyl-5-oxo-2,5-dihydrofuran-2-yloxy)-2-phenylacrylate] | weaker activity than GR24 and MP8 |  | the most active compound; also recorded: most pronounced inhibitory effect on tillering | 10100 ± 5100 nM
3 | COC(=O)/C(=C/OC1C=C(C)C(=O)O1)c1ccc(Cl)cc1 (centres unmarked) [MP7] | more efficient than GR24 | slightly more active than GR24; also recorded: more efficient than GR24 | more active than GR24 | 1150 ± 310 nM
